Source: patent US20130273649A1, “Culture medium for pluripotent stem cells” (UNIVERSITY OF SOUTHERN CALIFORNIA, priority 2012, published 2013)

Tests used:
mouse EpiSCs = assay: Mouse EpiSC self-renewal culture; assay type: cell-based; settings: compared to IWR-1, XAV939 and JW55
Text: We therefore reasoned that if CHIR induces EpiSC differentiation through stabilization of β-catenin, de-stabilization of β-catenin might promote EpiSC self-renewal. We tested this hypothesis by administering the tankyrase inhibitor XAV939 to mouse EpiSC cultures. XAV939-mediated inhibition of tankyrase stabilizes Axin, leading to the formation of the β-catenin destruction complex, composed of GSK3, Axin and adenomatous polyposis coli (APC) (Huang et al., 2009). […] EpiSCs cultured in CHIR/XAV could be routinely passaged by single-cell dissociation and replating onto gelatin-coated dishes, and could be cryo-preserved and recovered at high efficiency by standard techniques.
final concentrations: CHIR99021 (3 μM), PD0325901 (1 μM), XAV939 (Sigma, 2 μM), IWR-1 (Sigma, 2.5 μM), IWP-2 (Stemgent, 2.5 μM), Pyrvinium (Sigma, 100 nM), recombinant human FGF2 (PeproTech, 10 ng/ml), and recombinant human activin A (PeproTech, 10 ng/ml). CHIR99021 and PD0325901 were synthesized in the Division of Signal Transduction Therapy, University of Dundee, UK.
(§1) The basal medium for mouse EpiSC culture is the conventional mouse ESC medium, which consists of GMEM (Sigma) supplemented with 10% fetal bovine serum (FBS) (Hyclone), 2 mM L-glutamine (Invitrogen), 1 mM sodium pyruvate (Invitrogen), 1% nonessential amino acids (Invitrogen), and 0.1 mM (3-mercaptoethanol. Mouse EpiSCs were derived and maintained in the basal medium supplemented with FGF2/activin, CHIR/XAV, or CHIR/IWR-1. The basal medium for rat EpiSC culture is N2B27 (Tong et al., 2011), which was prepared by mixing 500 ml of DMEM/F12 (Invitrogen) with 500 ml of Neurobasal™ medium (Invitrogen), and adding 5 ml of N2 (Invitrogen), 10 ml of B27 (Invitrogen), 5 ml of Glutamax™ (Invitrogen), and 1 ml of 0.1 M β-mercaptoethanol (Sigma). The basal medium for human ESC culture consists of Knockout™ DMEM/F12 supplemented with 20% KSR (Invitrogen), 1% nonessential amino acids, 2 mM L-glutamine, and 0.1 mM (3-mercaptoethanol. Human ESCs were cultured in the basal medium supplemented with FGF2, CHIR/XAV, or CHIR/IWR-1.
Post-implantation epiblasts were isolated from mouse or rat embryos and dissociated into small clumps as previously described (Chenoweth and Tesar, 2010). Epiblast fragments were placed into 4-well plates pre-coated with 0.1% gelatin (for mouse epiblasts) or pre-seeded with γ-irradiated mouse embryonic fibroblasts (MEFs) (for rat epiblasts) and cultured in either the FGF2/activin or the CHIR/XAV conditions. Emerging EpiSCs were trypsinized and expanded every 2-3 days at a subculture ratio of 1:4. Animal experiments were performed according to the investigator's protocols approved by the University of Southern California Institutional Animal Care and Use Committee.

H9 human ESCs = assay: Human ESC self-renewal culture; assay type: cell-based; settings: compared to IWR-1, XAV939 and JW55
Text: As human ESCs share defining features with mouse EpiSCs (Hanna et al., 2010; Rossant, 2008; Tesar et al., 2007), we tested whether modulating β-catenin function can also promote human ESC self-renewal. […] Next, we examined the effect of CHIR/XAV and CHIR/IWR-1 on human ESC self-renewal. […] Similar results were obtained in H1 and HES3 human ESCs (data not shown). […] Moreover, human ESCs maintained in CHIR/IWR-1 express pluripotency markers Oct4, Nanog and Sox2 (FIG. 7E), and retain the ability to differentiate into cells of all three germ layers, both in vitro and in vivo (FIGS. 7F and 7G).
as §1
H1, H9, HES-2 and HES-3 human ESC lines were kindly provided by the University of Southern California Stem Cell Core Facility. Human ESCs were routinely maintained on γ-irradiated MEF feeders in Knockout™ DMEM medium (Invitrogen) supplemented with 20% Knockout™ serum replacement (KSR; Invitrogen), 10 ng/ml FGF2 (PeproTech), 1% nonessential amino acids, 2 mM L-glutamine, and 0.1 mM β-mercaptoethanol. […]

Wnt pathway = settings: relative to IWR-1; cited from earlier work

Compound: O=C1C([C@H]2CC[C@H](C(=O)Nc3cccc4cccnc34)CC2)C(=O)[C@H]2[C@H]3CC[C@H](C3)[C@@H]12 (stereo partly drawn) [53AH, (1R,4r)-4-((2s,3aR,4R,7S,7aS)-1,3-dioxooctahydro-1H-4,7-methanoinden-2-yl)-N-(quinolin-8-yl)cyclohexanecarboxamide]
- robustness for long-term expansion of mouse EpiSCs (mouse EpiSCs): more robust for long-term expansion
- robustness for long-term expansion of human ESCs (H9 human ESCs): more robust for long-term expansion
- potency in Wnt inhibition compared to IWR-1 (Wnt pathway): 5 fold
